Laboratory results reported in patent publication US20250381243A1, “HETEROCYCLES AND USES THEREOF” (Kumquat Biosciences Inc., priority 2022, published 2025).

system: A549 cells; test: Cell proliferation assay (CellTiter-Glo), cells with K-Ras G12S mutation; assay type: cell-based; conditions: Homo sapiens, 500 nM to 5 μM (mixed units), read-out: Inhibition of A549 Cells (IC50)
In short: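 A549 (K-Ras G12S) cells in RPMI-1640 with 10% heat-inactivated FBS, plated in standard or ultra-low-attachment 384-well format, treated next day with a dilution series (e.g., 10-point, 3-fold). Viability read by CellTiter-Glo luminescence about 6 days later; IC50 from four-parameter fit.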

IC50	Structure (SMILES)
500 to 5000 nM	CC1CC(N(C)C(=O)n2cnc(Cl)n2)CN1c1nc(OC[C@@]23CCCN2C[C@H](F)C3)nc2c(F)c(-c3ccc(F)c4sc(N)c(C#N)c34)c(Cl)cc12 (single isomer, unassigned) [Compound 105]
500 to 5000 nM	N#Cc1c(N)sc2c(F)ccc(-c3c(Cl)cc4c(N5CCCC(N(C(=O)n6cnc(Cl)n6)C6CC6)C5)nc(OC[C@@]56CCCN5C[C@H](F)C6)nc4c3F)c12 (stereo partly drawn) [Compound 151, N-(1-(7-(2-amino-3-cyano-7-fluorobenzo[b]thiophen-4-yl)-6-chloro-8-fluoro-2-(((2R,7aS)-2-fluorotetrahydro-1H-pyrrolizin-7a(5H)-yl)methoxy)quinazolin-4-yl)piperidin-3-yl)-3-chloro-N-cyclopropyl-1H-1,2,4-triazole-1-carboxamide]

same assay, conditions: Homo sapiens, ≤500 nM, read-out: Inhibition of A549 Cells (IC50)

Structure (SMILES)	IC50
CC(C)[C@H]1N(C(=O)n2cnc(Cl)n2)C[C@]12CCCCN(c1nc(OC[C@@]34CCCN3C[C@H](F)C4)nc3c(F)c(-c4ccc(F)c5sc(N)c(C#N)c45)c(Cl)cc13)C2 [Compound 142, 2-amino-4-(6-chloro-4-((1R,4R)-2-(3-chloro-1H-1,2,4-triazole-1-carbonyl)-1-isopropyl-2,6-diazaspiro[3.6]decan-6-yl)-8-fluoro-2-(((2R,7aS)-2-fluorotetrahydro-1H-pyrrolizin-7a(5H)-yl)methoxy)quinazolin-7-yl)-7-fluorobenzo[b]thiophene-3-carbonitrile]	≤ 500 nM
CC1CN(c2nc(OC[C@@]34CCCN3C[C@H](F)C4)nc3c(F)c(-c4ccc(F)c5sc(N)c(C#N)c45)c(Cl)cc23)CC1N(C)C(=O)n1cncn1 (stereo partly drawn) [Compound 206, N-(1-(7-(2-amino-3-cyano-7-fluorobenzo[b]thiophen-4-yl)-6-chloro-8-fluoro-2-(((2R,7aS)-2-fluorotetrahydro-1H-pyrrolizin-7a(5H)-yl)methoxy)quinazolin-4-yl)-4-methylpyrrolidin-3-yl)-N-methyl-1H-1,2,4 triazole-1-carboxamide]	≤ 500 nM
COCC1([C@H]2N(C(=O)n3cnc(F)n3)C[C@]23CC[C@H](C)N(c2nc(OC[C@@]45CCCN4C[C@H](F)C5)nc4c(F)c(-c5ccc(F)c6sc(N)c(C#N)c56)c(Cl)cc24)C3)CC1 [Compound 129, 2-amino-4-(6-chloro-8-fluoro-4-((1S,4R,7S)-2-(3-fluoro-1H-1,2,4-triazole-1-carbonyl)-1-(1-(methoxymethyl)cyclopropyl)-7-methyl-2,6-diazaspiro[3.5]nonan-6-yl)-2-(((2R,7aS)-2-fluorotetrahydro-1H-pyrrolizin-7a(5H)-yl)methoxy)quinazolin-7-yl)-7-fluorobenzo[b]thiophene-3-carbonitrile]	≤ 500 nM
COCC1([C@H]2N(C(=O)n3cnc(F)n3)C[C@]23CCCCN(c2nc(OC[C@@]45CCCN4C[C@H](F)C5)nc4c(F)c(-c5ccc(F)c6sc(N)c(C#N)c56)c(Cl)cc24)C3)CC1 [Compound 219, 2-amino-4-(6-chloro-8-fluoro-4-((1S,4R)-2-(3-fluoro-1H-1,2,4-triazole-1-carbonyl)-1-(1-(methoxymethyl)cyclopropyl)-2,6-diazaspiro[3.6]decan-6-yl)-2-(((2R,7aS)-2-fluorotetrahydro-1H-pyrrolizin-7a(5H)-yl)methoxy)quinazolin-7-yl)-7-fluorobenzo[b]thiophene-3-carbonitrile]	≤ 500 nM
CC(C)[C@@H]1[C@H](CN(C)c2nc(OC[C@@]34CCCN3C[C@H](F)C4)nc3c(F)c(-c4ccc(F)c5sc(N)c(C#N)c45)c(Cl)cc23)CN1C(=O)n1cnc(F)n1 [Compound 144, 2-amino-4-(6-chloro-8-fluoro-4-((((2R,3R)-1-(3-fluoro-1H-1,2,4-triazole-1-carbonyl)-2-isopropylazetidin-3-yl)methyl)(methyl)amino)-2-(((2R,7aS)-2-fluorotetrahydro-1H-pyrrolizin-7a(5H)-yl)methoxy)quinazolin-7-yl)-7-fluorobenzo[b]thiophene-3-carbonitrile]	≤ 500 nM
CC(C)C1N(C(=O)n2cncn2)CC12CCCN(c1nc(OC[C@@]34CCCN3C[C@H](F)C4)nc3c(F)c(-c4ccc(F)c5sc(N)c(C#N)c45)c(Cl)cc13)C2 (stereo partly drawn) [Compound 116, 2-amino-4-(6-chloro-8-fluoro-2-(((2R,7aS)-2-fluorotetrahydro-1H-pyrrolizin-7a(5H)-yl)methoxy)-4-(1-isopropyl-2-(1H-1,2,4-triazole-1-carbonyl)-2,6-diazaspiro[3.5]nonan-6-yl)quinazolin-7-yl)-7-fluorobenzo[b]thiophene-3-carbonitrile]	≤ 500 nM
CCN(C(=O)n1cnc(Cl)n1)[C@@H]1CCN(c2nc(OC[C@@]34CCCN3C[C@H](F)C4)nc3c(F)c(-c4ccc(F)c5sc(N)c(C#N)c45)c(Cl)cc23)[C@@H]1C (atropisomer, axis not shown; (aS)) [Compound 176, N-((2R,3R)-1-(7-((R)-2-amino-3-cyano-7-fluorobenzo[b]thiophen-4-yl)-6-chloro-8-fluoro-2-(((2R,7aS)-2-fluorotetrahydro-1H-pyrrolizin-7a (5H)-yl)methoxy)quinazolin-4-yl)-2-methylpyrrolidin-3-yl)-3-chloro-N-ethyl-1H-1,2,4-triazole-1-carboxamide]	≤ 500 nM
C[C@H]1CC[C@]2(CN(C(=O)n3cnc(F)n3)[C@@H]2C2CCC2)CN1c1nc(OC[C@@]23CCCN2C[C@H](F)C3)nc2c(F)c(-c3ccc(F)c4sc(N)c(C#N)c34)c(Cl)cc12 [Compound 199, 2-amino-4-(6-chloro-4-((1R,4R,7S)-1-cyclobutyl-2-(3-fluoro-1H-1,2,4-triazole-1-carbonyl)-7-methyl-2,6-diazaspiro[3.5]nonan-6-yl)-8-fluoro-2-(((2R,7aS)-2-fluorotetrahydro-1H-pyrrolizin-7a(5H)-yl)methoxy)quinazolin-7-yl)-7-fluorobenzo[b]thiophene-3-carbonitrile]	≤ 500 nM
CC(C)[C@@H]1[C@H](CN(C)c2nc(OC[C@@]34CCCN3C[C@H](F)C4)nc3c(F)c(-c4ccc(F)c5sc(N)c(C#N)c45)c(Cl)cc23)CN1C(=O)n1cnc(Cl)n1 [Compound 208, 2-amino-4-(6-chloro-4-((((2R,3R)-1-(3-chloro-1H-1,2,4-triazole-1-carbonyl)-2-isopropylazetidin-3-yl)methyl)(methyl)amino)-8-fluoro-2-(((2R,7aS)-2-fluorotetrahydro-1H-pyrrolizin-7a(5H)-yl)methoxy)quinazolin-7-yl)-7-fluorobenzo[b]thiophene-3-carbonitrile]	≤ 500 nM

More lines, now with the values ahead:

IC50	Structure (SMILES)
≤ 500 nM	N#Cc1c(N)sc2c(F)ccc(-c3c(Cl)cc4c(N5CCC(N(C(=O)n6cncn6)C6CC6)C5)nc(OC[C@@]56CCCN5C[C@H](F)C6)nc4c3F)c12 (stereo partly drawn) [Compound 135, N-(1-(7-(2-amino-3-cyano-7-fluorobenzo[b]thiophen-4-yl)-6-chloro-8-fluoro-2-(((2R,7aS)-2-fluorotetrahydro-1H-pyrrolizin-7a(5H)-yl)methoxy)quinazolin-4-yl)pyrrolidin-3-yl)-N-cyclopropyl-1H-1,2,4-triazole-1-carboxamide]
≤ 500 nM	CN(C(=O)n1cncn1)C1CCN(c2nc(OC[C@@]34CCCN3C[C@H](F)C4)nc3c(F)c(-c4ccc(F)c5sc(N)c(C#N)c45)c(Cl)cc23)C1 (stereo partly drawn) [Compound 124, N-(1-(7-(2-amino-3-cyano-7-fluorobenzo[b]thiophen-4-yl)-6-chloro-8-fluoro-2-(((2R,7aS)-2-fluorotetrahydro-1H-pyrrolizin-7a(5H)-yl)methoxy)quinazolin-4-yl)pyrrolidin-3-yl)-N-methyl-1H-1,2,4-triazole-1-carboxamide]
≤ 500 nM	CC(C)[C@H]1N(C(=O)n2cnc(F)n2)C[C@@]12CN(c1nc(OC[C@@]34CCCN3C[C@H](F)C4)nc3c(F)c(-c4ccc(F)c5sc(N)c(C#N)c45)c(Cl)cc13)CCO2 [Compound 204, 2-amino-4-(6-chloro-8-fluoro-4-((1R,4S)-2-(3-fluoro-1H-1,2,4-triazole-1-carbonyl)-1-isopropyl-5-oxa-2,8-diazaspiro[3.5]nonan-8-yl)-2-(((2R,7aS)-2-fluorotetrahydro-1H-pyrrolizin-7a(5H)-yl)methoxy)quinazolin-7-yl)-7-fluorobenzo[b]thiophene-3-carbonitrile]
≤ 500 nM	CN(C[C@@H]1CN(C(=O)n2cnc(C(F)F)n2)[C@@H]1C(C)(C)C)c1nc(OC[C@@]23CCCN2C[C@H](F)C3)nc2c(F)c(-c3ccc(F)c4sc(N)c(C#N)c34)c(Cl)cc12 [Compound 228, 2-amino-4-(4-((((2S,3R)-2-(tert-butyl)-1-(3-(difluoromethyl)-1H-1,2,4-triazole-1-carbonyl)azetidin-3-yl)methyl)(methyl)amino)-6-chloro-8-fluoro-2-(((2R,7aS)-2-fluorotetrahydro-1H-pyrrolizin-7a(5H)-yl)methoxy)quinazolin-7-yl)-7-fluorobenzo[b]thiophene-3-carbonitrile]
≤ 500 nM	CN(C[C@@H]1CN(C(=O)n2cnc(F)n2)[C@@H]1C1(C)CC1)c1nc(OC[C@@]23CCCN2C[C@H](F)C3)nc2c(F)c(-c3ccc(F)c4sc(N)c(C#N)c34)c(Cl)cc12 [Compound 130, 2-amino-4-(6-chloro-8-fluoro-4-((((2S,3R)-1-(3-fluoro-1H-1,2,4-triazole-1-carbonyl)-2-(1-methylcyclopropyl)azetidin-3-yl)methyl)(methyl)amino)-2-(((2R,7aS)-2-fluorotetrahydro-1H-pyrrolizin-7a(5H)-yl)methoxy)quinazolin-7-yl)-7-fluorobenzo[b]thiophene-3-carbonitrile]
≤ 500 nM	C[C@H]1CC[C@]2(CN(C(=O)n3cnc(F)n3)[C@@H]2C2(C)CC2)CN1c1nc(OC[C@]23CCCN2CC(=C(F)F)C3)nc2c(F)c(-c3ccc(F)c4sc(N)c(C#N)c34)c(Cl)cc12 [Compound 223, 2-amino-4-(6-chloro-2-(((R)-2-(difluoromethylene)tetrahydro-1H-pyrrolizin-7a(5H)-yl)methoxy)-8-fluoro-4-((1R,4R,7S)-2-(3-fluoro-1H-1,2,4-triazole-1-carbonyl)-7-methyl-1-(1-methylcyclopropyl)-2,6-diazaspiro[3.5]nonan-6-yl)quinazolin-7-yl)-7-fluorobenzo[b]thiophene-3-carbonitrile]
